Assays:
[1] = system: MCF7-Y537S human breast cancer cell line xenograft; assay: Anti-tumor efficacy against subcutaneous MCF7-Y537S human breast cancer cell line xenograft in female nude mice; format: in vivo; set-up: key to Biological Interpretation: Active: ΔT/ΔC≤40% is considered as therapeutically active; Very active: ΔT/ΔC<0% is considered as tumor regression (very active); Inactive: ΔT/ΔC>40% is considered as therapeutically inactive; conditions: for Tumor volume changes from baseline: Median: compound (1) 5 mg/kg BID, palbociclib 100 mg/kg QD, PO; for Biological Interpretation: based on ΔT/ΔC at day 51; for Biological Interpretation / ΔT/ΔC in % at day 51 / Regressions Complete / Regressions Partial: compound (1) 5 mg/kg PO BID, palbociclib 100 mg/kg PO QD; for ΔT/ΔC in % at day 51: days 22 to 51; for Regressions Complete: mice with complete regression/evaluable mice; for Regressions Complete / Regressions Partial: 30 days; for Regressions Partial: mice with partial regression/evaluable mice
Experimental: In the present study, the anti-tumor efficacy of 6-(2,4-dichlorophenyl)-5-[4-[(3S)-1-(3-fluoropropyl)pyrrolidin-3-yl]oxyphenyl]-8,9-dihydro-7H-benzo[7]annulene-2-carboxylic acid (“compound (1)”), combined with the cyclin-dependent kinase 4 (CDK4) inhibitor palbociclib, was investigated after 30 days treatment against a subcutaneous MCF7-Y537S human breast cancer cell line xenograft in female nude mice.
The treated groups included compound (1) at 5 mg/kg alone, palbociclib at 100 mg/kg alone, and the combination of compound (1) and palbociclib at the same dose and regime.
Compound (1) was orally dosed twice a day (BID) and palbociclib was orally dosed once a day (QD) for 30 days. Anti-tumor efficacy was evaluated by tumor volume measurement.
Female athymic nude mice were obtained from Harlan (Indianapolis, Ind., USA). Animals were allowed to acclimate for at least four days before the study enrollment. Mice were 12 to 13 weeks old and weighed between 20.2 and 27.3 grams at the beginning of the treatments. These animals were housed under conditions outlined in the NIH Guide for Care and Use of Laboratory Animals in compliance with the USDA Laboratory Animal Welfare Act.
Parental MCF7 cells were obtained from the American Type Culture Collection (ATCC® HTB-22™). MCF7-Y537S (ESR1) cell line was MCF7 cells expressing the ER.Y537S variant that was generated by Sanofi Biology Discovery Group. Y537S mutation was introduced in ESR1 construct (GenBank NM_000125.3) by site directed mutagenesis (Toy W. et al., Cancer Discovery, 2017, 7, 277-287). The construct was transfected in MCF7 cells which were selected for their growth in absence of estradiol. MCF-Y537S is an ESR1 mutation that confers estrogen-independent activity to ERα (Estrogen Receptor alpha) and contributes to endocrine resistant disease (Robinson D. R. et al., Nat Genet., 2013, 45 (12), 1446-1451). The cells were grown in Eagle's Minimum Essential Medium (EMEM) supplemented with 10% fetal bovine serum (FBS), human Insulin, in 5% CO2 at 37° C. The cells were harvested in 0.25% Trypsin EDTA and washed by Dulbecco's Phosphate Buffered Saline (DPBS) and re-suspended in DPBS with 50% matrigel (Becton Dickinson catalog No. 356234, lot No. 32277). The cells (20×10^6 cells/per mouse) were subcutaneously (SC) implanted into the right flank of female nude mice.
When the MCF7-Y537S tumors were established, the tumors were reserved as tumor stocks for fragment implantation. The tumors were serially propagated through fragment tissue transplantation subcutaneously. The fragment tumor tissues were subcutaneously implanted into the right flank of female nude mice. 50 mice were assigned in this experiment.
Compound (1) and palbociclib (commercially available, marketed under the tradename Ibrance®) were formulated as follows: […]
Compound (1) was prepared in Vehicle A, then Solutol HS15 (purchased from Sigma) was added to the final concentration 5%, and the solution was left under stirring for an hour for complete dissolution. After that, vehicle B was added. The final pH was 5.5.
Palbociclib was prepared in Vehicle A, then Solutol HS15 was added to the final concentration 5%, and the solution was left under stirring for an hour for complete dissolution. After that, vehicle B was added. The final pH was 5.5.
The animals required for experiment (plus extra) were pooled and implanted with MCF7-Y537S tumor fragment tissues on day 0. On day 21 post implantation, the mice were pooled and randomly distributed to the treatment and control groups (10 mice per group), where median tumor volumes for each group ranged from 202.5 to 211.5 mm^3. Treatments of compound (1) and palbociclib were initiated on day 22. Compound (1) was orally administered at 5 mg/kg BID (at least 5 hours apart) and palbociclib was orally administered at 100 mg/kg QD, for 30 days. Animal body weight was assessed daily.
The dosages are expressed in mg/kg and based on daily body weight per animal. Vehicle treated animals were used as controls. […]

[2] = Tolerability (body weight change, deaths) in the MCF7-Y537S xenograft study in nude mice; format: in vivo; conditions: compound (1) 5 mg/kg PO BID, palbociclib 100 mg/kg PO QD; for Average body weight change in % per group at nadir: days 22 to 51 (30 days); for day of nadir (of average body weight change): day post implantation, days 22 to 51; for Unscheduled death (Day of death): dead/total mice, footnote: non-drug related death or terminations, 30 days
Experimental: The animals required for experiment (plus extra) were pooled and implanted with MCF7-Y537S tumor fragment tissues on day 0. […] Animal body weight was assessed daily.
The dosages are expressed in mg/kg and based on daily body weight per animal. Vehicle treated animals were used as controls. Mice were checked daily and adverse clinical reactions noted. Individual mice were weighed daily until the end of the experiment. Mice would be euthanized when morbid or weight loss ≥20% was observed. Tumors were measured with a caliper twice weekly until final sacrifice. When a tumor size reached approximately 2000 mm^3 or when there are animal health issues (40% area of a tumor ulcerated), animals would be euthanized and date of death recorded. Solid tumor volumes were estimated from two dimensional tumor measurements and calculated according to the following equation: […]
Animal body weight included the tumor weight.

Row | SMILES | Tumor volume changes from baseline: Median ([1]; Day 27) | Tumor volume changes from baseline: Median ([1]; Day 30) | Tumor volume changes from baseline: Median ([1]; Day 34) | Tumor volume changes from baseline: Median ([1]; Day 37) | Tumor volume changes from baseline: Median ([1]; Day 41) | Tumor volume changes from baseline: Median ([1]; Day 44) | Tumor volume changes from baseline: Median ([1]; Day 49) | Tumor volume changes from baseline: Median ([1]; Day 51) | Biological Interpretation [1] | ΔT/ΔC in % at day 51 [1] | Regressions Complete [1] | Regressions Partial [1] | Average body weight change in % per group at nadir [2] | day of nadir (of average body weight change) [2] | Unscheduled death (Day of death) [2]
1 | O=C(O)c1ccc2c(c1)CCCC(c1ccc(Cl)cc1Cl)=C2c1ccc(O[C@H]2CCN(CCCF)C2)cc1 [Compound (1), 6-(2,4-dichlorophenyl)-5-[4-[(3S)-1-(3-fluoropropyl)pyrrolidin-3-yl]oxyphenyl]-8,9-dihydro-7H-benzo[7]annulene-2-carboxylic acid] | 114.0 mm^3 | 171.5 mm^3 | 270.5 mm^3 | 336.0 mm^3 | 440.0 mm^3 | 498.5 mm^3 | 727.5 mm^3 | 782.0 mm^3 | Inactive | 59% | 0/8 | 0/8 | −1.7% | 22 | 2/10
2 | CC(=O)c1c(C)c2cnc(Nc3ccc(N4CCNCC4)cn3)nc2n(C2CCCC2)c1=O [Palbociclib, 6-acetyl-8-cyclopentyl-5-methyl-2-[5-(1-piperazinyl)pyridine-2-ylamino]pyrido[2,3-d]pyrimidin-7(8H)-one] | 68.5 mm^3 | 98.0 mm^3 | 121.5 mm^3 | 132.0 mm^3 | 193.5 mm^3 | 249.5 mm^3 | 298.5 mm^3 | 363.5 mm^3 | Active | 27% | 0/10 | 0/10 | −2.0% | 22 | 0/10

— US11260057B2, “Combination comprising palbociclib and 6-(2,4-dichlorophenyl)-5-[4-[(3S)-1-(3-fluoropropyl)pyrrolidin-3-yl]oxyphenyl]-8,9-dihydro-7H-benzo[7] annulene-2-carboxylic acid and its use for the treatment of cancer” (SANOFI, priority 2017, dated 2022)
